Structures can show the parent of a compound that is named as a salt. Where two headings read alike, the source gives them in different places.
Legend:
Type in all cases: physicochemical
[1] = Test of solubility in different buffers
Description: The solubility of sodium, L-lactate and L-tartrate salts of the compound of formula (I) was analyzed in different buffers. The results are described in table below (solubility of the tested compound is expressed in mg/ml).

[2] = Test of stability in the solid state (stress degradation, one week of storage); conditions: for Stress degradation conditions 80°/saturated humidity: one week of storage at 80° C. under saturated humidity; for Stress degradation conditions 80° C./dry: one week of storage at 80° C., stable = optically, chemically and physically
Description: The sodium, L-lactate and L-tartrate salts of the compound of formula (I) were analyzed after one week of storage, at: • 80° C. • 80° C. and under saturated humidity, […]

[3] = Test of stability in solution (strong oxidizing solution, H2O2 at 0.3%); proportion of main N-oxide impurity; conditions: room temperature
Description: The sodium, L-lactate and L-tartrate salts of the compound of formula (I) were analyzed after one week of storage in a strong oxidizing solution: the three compounds were maintained in a solution of H2O2 at 0.3%, at room temperature. After either 6 hours or one week, the proportion of the main N-oxide impurity of the compound of formula (I) [drawing 4] was measured.

[4] = Physical properties: hygroscopicity, water uptake, behavior under saturated humidity; conditions: for Behavior under saturated humidity 80° C.: sodium and L-lactate: after 24 hours
[5] = 0.2M pH = 9 hydregenocarbonate buffer

| SMILES | Solubility ([1]; 0.1M pH = 4 phosphate buffer) | Solubility ([1]; 0.1M pH = 6.5 phosphate buffer) | Solubility ([1]; 0.1M pH = 7.4 phosphate buffer) | Solubility ([1]; 0.1N HCl) | Solubility [1, 5] | Solubility ([1]; Purified water) | Stress degradation conditions 80°/saturated humidity [2] | Stress degradation conditions 80° C./dry [2] | % of impurity (main N-oxide impurity) ([3]; after 1 week) | Hygroscopicity [4] | Water uptake 80% RH 25° C. [4] | Behavior under saturated humidity 80° C. [4] | Solubility ([1]; 0.1N HCl, simulated gastric fluid, 0.1N HCl, read-out: Solubility) | Solubility ([1]; hydrogenocarbonate buffer, pH 9, aqueous buffer, 0.2M pH = 9 hydregenocarbonate buffer, read-out: Solubility) | Solubility ([1]; phosphate buffer, pH 4, aqueous buffer, 0.1M pH = 4 phosphate buffer, read-out: Solubility) | Solubility ([1]; phosphate buffer, pH 6.5, aqueous buffer, 0.1M pH = 6.5 phosphate buffer, read-out: Solubility) | Solubility ([1]; phosphate buffer, pH 7.4, aqueous buffer, 0.1M pH = 7.4 phosphate buffer, read-out: Solubility) | Solubility ([1]; purified water, water, Purified water, read-out: Solubility) | % of impurity (main N-oxide impurity) ([3]; after 6 hours) |
| --- | --- | --- | --- | --- | --- | --- | --- | --- | --- | --- | --- | --- | --- | --- | --- | --- | --- | --- | --- |
| Cc1c(N2CCCC2=O)cccc1S(=O)(=O)N[C@@H](CNC(=O)c1ccc(Cl)s1)C(=O)N1CCN(C)CC1 [L-lactate salt, 5-chloro-thiophene-2-carboxylic acid [(S)-2-[2-methyl-3-(2-oxo-pyrrolidin-1-yl)-benzenesulfonylamino]-3-(4-methyl-piperazin-1-yl)-3-oxo-propyl]amide] | >10000 µg/mL | >10000 µg/mL | 9800 µg/mL | >10000 µg/mL | 8500 µg/mL | >10000 µg/mL | slight degradation | stable* | 6.9% after 1 week | Hygroscopic | 2.5% | Gel formation-amorphous | – | – | – | – | – | – | – |
| Cc1c(N2CCCC2=O)cccc1S(=O)(=O)N[C@@H](CNC(=O)c1ccc(Cl)s1)C(=O)N1CCN(C)CC1 [L-tartrate salt, 5-chloro-thiophene-2-carboxylic acid [(S)-2-[2-methyl-3-(2-oxo-pyrrolidin-1-yl)-benzenesulfonylamino]-3-(4-methyl-piperazin-1-yl)-3-oxo-propyl]amide] | >10000 µg/mL | >10000 µg/mL | >10000 µg/mL | >10000 µg/mL | 8300 µg/mL | >10000 µg/mL | stable | stable* | 0.77% after 1 week | Slightly | 0.9% | Stable 7 days | – | – | – | – | – | – | – |
| Cc1c(N2CCCC2=O)cccc1S(=O)(=O)N[C@@H](CNC(=O)c1ccc(Cl)s1)C(=O)N1CCN(C)CC1 [Sodium salt, 5-chloro-thiophene-2-carboxylic acid [(S)-2-[2-methyl-3-(2-oxo-pyrrolidin-1-yl)-benzenesulfonylamino]-3-(4-methyl-piperazin-1-yl)-3-oxo-propyl]amide] | – | – | – | – | – | – | huge degradation | stable* | – | Highly | 31.5% | Deliquescence | > 10000 µg/mL | > 10000 µg/mL | 8900 µg/mL | 6500 µg/mL | 6900 µg/mL | > 10000 µg/mL | 25.4% after 6 hours |
